Columns and labels:
IRAK4 enzyme = IRAK4 enzyme (Homo sapiens (Human), UniProt Q9NWZ3); test: biochemical; format: biochemical; conditions: IRAK4 enzyme, TR-FRET (HTRF), 500 μM ATP
TNFα = test: cells; format: cell-based, human; conditions: Homo sapiens, Monocyte, LPS-stimulated human monocytes, TNFα content; read-out: EC50 TNF

IRAK4 enzyme, sequence (Q9NWZ3 whole entry): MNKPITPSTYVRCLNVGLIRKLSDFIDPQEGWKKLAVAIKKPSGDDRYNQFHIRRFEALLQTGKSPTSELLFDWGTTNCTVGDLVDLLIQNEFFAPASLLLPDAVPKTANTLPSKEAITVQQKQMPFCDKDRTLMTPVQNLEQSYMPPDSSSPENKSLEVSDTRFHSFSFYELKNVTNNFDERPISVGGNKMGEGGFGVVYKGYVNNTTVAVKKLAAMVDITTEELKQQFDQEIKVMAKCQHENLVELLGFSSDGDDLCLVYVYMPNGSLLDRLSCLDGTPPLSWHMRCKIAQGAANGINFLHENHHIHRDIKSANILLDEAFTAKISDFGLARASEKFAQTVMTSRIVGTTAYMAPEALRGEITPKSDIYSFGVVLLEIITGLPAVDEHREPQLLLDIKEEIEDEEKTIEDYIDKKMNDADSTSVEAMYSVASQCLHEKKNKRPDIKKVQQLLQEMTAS

| SMILES | IC50 (IRAK4 enzyme) [nM] | EC50 (TNFα) [nM] |
| --- | --- | --- |
| N#Cc1cnn2c(-c3cc(NC45CCC(O)(CC4)CC5)c(C(=O)NCCO)cn3)ccc2c1 [Example 745, 6-(3-cyanopyrrolo[1,2-b]pyridazin-7-yl)-4-((4-hydroxybicyclo[2.2.2]octan-1-yl)amino)-N-(2-hydroxyethyl)nicotinamide] | < 1 | 87 |
| COC(=O)NCCNC(=O)c1cnc(-c2ccc3cc(C#N)cnn23)cc1NC12CCC(O)(CC1)CC2 [Example 746, methyl (2-(6-(3-cyano-pyrrolo[1,2-b]pyridazin-7-yl)-4-((4-hydroxy-bicyclo[2.2.2]octan-1-yl)amino)nicotinamido)ethyl)carbamate] | 1 | 105 |
| CNC(=O)O[C@@H]1CCC[C@H](Nc2cc(-c3ccc4cc(C#N)cnn34)ncc2C(=O)NC[C@@H](F)C(C)(C)O)C1 [Example 748, (1R,3S)-3-((2-(3-cyano-pyrrolo[1,2-b]pyridazin-7-yl)-5-(((R)-2-fluoro-3-hydroxy-3-methylbutyl)carbamoyl)pyridin-4-yl)amino)cyclohexyl methylcarbamate] | < 1 | 38 |
| CC(C)(O)[C@H](F)CNC(=O)c1cnc(-c2ccc3cc(C#N)cnn23)cc1NC1CC2(C1)CC(F)(F)C2 [Example 749, (R)-6-(3-cyanopyrrolo[1,2-b]pyridazin-7-yl)-4-((6,6-difluorospiro[3.3]heptan-2-yl)amino)-N-(2-fluoro-3-hydroxy-3-methylbutyl) nicotinamide] | < 1 | 52 |
| COC(=O)N[C@H]1CC[C@H](Nc2cc(-c3ccc4cc(C#N)cnn34)ncc2C(=O)NC[C@@H](F)C(C)(C)O)C1 [Example 750, methyl ((1S,3S)-3-((2-(3-cyanopyrrolo[1,2-b]pyridazin-7-yl)-5-(((R)-2-fluoro-3-hydroxy-3-methylbutyl)carbamoyl)pyridin-4-yl)amino)cyclopentyl) carbamate] | 1 | 198 |
| COC(=O)N1CC[C@H](Nc2cc(-c3ccc4cc(C#N)cnn34)ncc2C(=O)NC[C@@H](F)C(C)(C)O)C1 [Example 751, (S)-methyl 3-((2-(3-cyano-pyrrolo[1,2-b]pyridazin-7-yl)-5-(((R)-2-fluoro-3-hydroxy-3-methylbutyl)carbamoyl)pyridin-4-yl)amino)pyrrolidine-1-carboxylate] | 4 | 333 |
| COC(=O)N1CC[C@@H](Nc2cc(-c3ccc4cc(C#N)cnn34)ncc2C(=O)NC[C@@H](F)C(C)(C)O)C1 [Example 752, (R)-methyl 3-((2-(3-cyano-pyrrolo[1,2-b]pyridazin-7-yl)-5-(((R)-2-fluoro-3-hydroxy-3-methylbutyl)carbamoyl)pyridin-4-yl)amino)pyrrolidine-1-carboxylate] | < 1 | 80 |
| CC(C)(O)CNC(=O)c1cnc(-c2ccc3cc(C#N)cnn23)cc1NC12CCC(O)(CC1)CC2 [Example 753, 6-(3-cyanopyrrolo[1,2-b]pyridazin-7-yl)-N-(2-hydroxy-2-methylpropyl)-4-((4-hydroxybicyclo[2.2.2]octan-1-yl)amino) nicotinamide] | 7 | 225 |
| COC(=O)NC1CC2(C1)CC(Nc1cc(-c3ccc4cc(C#N)cnn34)ncc1C(=O)NC[C@@H](F)C(C)(C)O)C2 (stereo partly drawn) [Example 754, (R)-methyl (6-((2-(3-cyanopyrrolo[1,2-b]pyridazin-7-yl)-5-((2-fluoro-3-hydroxy-3-methylbutyl)carbamoyl)pyridin-4-yl)amino)spiro[3.3]heptan-2-yl)carbamate] | < 1 | 20 |
| CC(C)(O)[C@H](F)CNC(=O)c1cnc(-c2ccc3cc(C#N)cnn23)cc1Nc1cnn(-c2ccccn2)c1 [Example 755, (R)-6-(3-cyanopyrrolo[1,2-b]pyridazin-7-yl)-N-(2-fluoro-3-hydroxy-3-methylbutyl)-4-((1-(pyridin-2-yl)-1H-pyrazol-4-yl)amino)nicotinamide] | 1 | 16 |
| COC(=O)NCC1(F)CC(Nc2cc(-c3ccc4cc(C#N)cnn34)ncc2C(=O)NC[C@@H](F)C(C)(C)O)C1 (stereo partly drawn) [Example 758, (R)-methyl ((3-((2-(3-cyanopyrrolo[1,2-b]pyridazin-7-yl)-5-((2-fluoro-3-hydroxy-3-methylbutyl)carbamoyl)pyridin-4-yl)amino)-1-fluorocyclobutyl)methyl)carbamate] | 1 | 11 |
| CC(C)(O)[C@H](F)CNC(=O)c1cnc(-c2ccc3cc(C#N)cnn23)cc1Nc1cnn(-c2ccncc2)c1 [Example 761, (R)-6-(3-cyanopyrrolo[1,2-b]pyridazin-7-yl)-N-(2-fluoro-3-hydroxy-3-methylbutyl)-4-((1-(pyridin-4-yl)-1H-pyrazol-4-yl)amino) nicotinamide] | < 1 | 26 |
| CC(C)(O)[C@H](F)CNC(=O)c1cnc(-c2ccc3cc(C#N)cnn23)cc1Nc1ccc(-n2cncn2)cc1 [Example 762, (R)-4-((4-(1H-1,2,4-triazol-1-yl)phenyl)amino)-6-(3-cyanopyrrolo[1,2-b]pyridazin-7-yl)-N-(2-fluoro-3-hydroxy-3-methylbutyl)nicotinamide] | < 1 | 7 |
| CC(C)(O)[C@H](F)CNC(=O)c1cnc(-c2ccc3cc(C#N)cnn23)cc1NC1CC2(CNC(=O)O2)C1 (stereo partly drawn) [Example 763, (R)-6-(3-cyanopyrrolo[1,2-b]pyridazin-7-yl)-N-(2-fluoro-3-hydroxy-3-methylbutyl)-4-((6-oxo-5-oxa-7-azaspiro[3.4]octan-2-yl)amino)nicotinamide] | < 1 | 155 |
| CC(C)(O)[C@H](F)CNC(=O)c1cnc(-c2ccc3cc(C#N)cnn23)cc1Nc1ccc(-n2cncn2)nc1 [Example 766, (R)-4-((6-(1H-1,2,4-triazol-1-yl)pyridin-3-yl)amino)-6-(3-cyanopyrrolo[1,2-b]pyridazin-7-yl)-N-(2-fluoro-3-hydroxy-3-methyl-butyl)nicotinamide] | < 1 | 38 |
| CC(C)(O)[C@H](F)CNC(=O)c1cnc(-c2ccc3cc(C#N)cnn23)cc1Nc1ccc(-n2ccnc2)cc1 [Example 767, (R)-4-((4-(1H-imidazol-1-yl)phenyl)amino)-6-(3-cyanopyrrolo[1,2-b]pyridazin-7-yl)-N-(2-fluoro-3-hydroxy-3-methylbutyl)nicotinamide] | < 1 | 35 |
| CC(C)(O)[C@H](F)CNC(=O)c1cnc(-c2ccc3cc(C#N)cnn23)cc1Nc1ccc(-n2ccnc2)nc1 [Example 768, (R)-4-((6-(1H-imidazol-1-yl)pyridin-3-yl)amino)-6-(3-cyanopyrrolo[1,2-b]pyridazin-7-yl)-N-(2-fluoro-3-hydroxy-3-methyl-butyl)nicotinamide] | < 1 | 24 |
| CC(C)(O)[C@H](F)CNC(=O)c1cnc(-c2ccc3cc(C#N)cnn23)cc1Nc1ccc(-n2cccn2)cc1 [Example 769, (R)-4-((4-(1H-pyrazol-1-yl)phenyl)amino)-6-(3-cyanopyrrolo[1,2-b]pyridazin-7-yl)-N-(2-fluoro-3-hydroxy-3-methylbutyl)nicotinamide] | < 1 | 44 |
| CC(C)(O)[C@H](F)CNC(=O)c1cnc(-c2ccc3cc(C#N)cnn23)cc1Nc1ccc(-n2cccn2)nc1 [Example 770, (R)-4-((6-(1H-pyrazol-1-yl)pyridin-3-yl)amino)-6-(3-cyanopyrrolo[1,2-b]pyridazin-7-yl)-N-(2-fluoro-3-hydroxy-3-methyl-butyl)nicotinamide] | < 1 | 50 |
| CC(C)(O)[C@H](F)CNC(=O)c1cnc(-c2ccc3cc(C#N)cnn23)cc1Nc1ccc(-c2nncs2)cc1 [Example 771, (R)-4-((4-(1,3,4-thiadiazol-2-yl)phenyl)amino)-6-(3-cyanopyrrolo[1,2-b]pyridazin-7-yl)-N-(2-fluoro-3-hydroxy-3-methylbutyl)nicotinamide] | < 1 | 37 |
| CC(C)(O)[C@H](F)CNC(=O)c1cnc(-c2ccc3cc(C#N)cnn23)cc1Nc1ccc(-n2cnnc2)cc1 [Example 772, (R)-4-((4-(4H-1,2,4-triazol-4-yl)phenyl)amino)-6-(3-cyanopyrrolo[1,2-b]pyridazin-7-yl)-N-(2-fluoro-3-hydroxy-3-methylbutyl)nicotinamide] | < 1 | 14 |
| CC(C)(O)[C@H](F)CNC(=O)c1cnc(-c2ccc3cc(C#N)cnn23)cc1Nc1ccc(-c2ccon2)cc1 [Example 773, (R)-6-(3-cyanopyrrolo[1,2-b]pyridazin-7-yl)-N-(2-fluoro-3-hydroxy-3-methylbutyl)-4-((4-(isoxazol-3-yl)phenyl)amino) nicotinamide] | 1 | 43 |
| CC(C)(O)[C@H](F)CNC(=O)c1cnc(-c2ccc3cc(C#N)cnn23)cc1Nc1ccc(-c2ccon2)nc1 [Example 775, (R)-6-(3-cyanopyrrolo[1,2-b]pyridazin-7-yl)-N-(2-fluoro-3-hydroxy-3-methylbutyl)-4-((6-(isoxazol-3-yl)pyridin-3-yl)amino)nicotinamide] | < 1 | 25 |
| CC(C)(O)[C@H](F)CNC(=O)c1cnc(-c2ccc3cc(C#N)cnn23)cc1N[C@H]1C[C@H](Cn2cncn2)C1 [Example 776, 4-(((1r,3R)-3-((1H-1,2,4-triazol-1-yl)methyl)cyclo-butyl)amino)-6-(3-cyano-pyrrolo[1,2-b]pyridazin-7-yl)-N-((R)-2-fluoro-3-hydroxy-3-methylbutyl) nicotinamide] | 1 | 32 |
| CC(C)(O)[C@H](F)CNC(=O)c1cnc(-c2ccc3cc(C#N)cnn23)cc1N[C@H]1CC[C@H](c2ccon2)CC1 [Example 777, 6-(3-cyanopyrrolo[1,2-b]pyridazin-7-yl)-N-((R)-2-fluoro-3-hydroxy-3-methylbutyl)-4-(((1r,4R)-4-(isoxazol-3-yl)cyclohexyl)amino)nicotinamide] | < 1 | 15 |

From US10336762B2 (priority 2017, dated 2019)
